Source: ChEMBL document CHEMBL1201862, “PubChem BioAssay data set” (2004)
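Following 48 hours of exposure in 96-well plates, responses at five concentrations were used to interpolate endpoints linearly. GI50 marks 50% less growth.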 The source made the active and inactive calls. Cut-off read from the data, not from the text of the source: active = GI50 up to about 1.1 µM and inactive = higher.

Experiments:
Assay in all cases: inhibition of tumour cell growth, NCI panel, 48 h
[1] = system: 786-0
[2] = system: A498
[3] = system: COLO 205
[4] = system: HCT-15
[5] = system: HL-60
[6] = system: HOP-62
[7] = system: HOP-92
[8] = system: M14
[9] = system: MDA-MB-231
[10] = system: MOLT-4
[11] = system: Malme-3M
[12] = system: NCI/ADR-RES
[13] = system: OVCAR-3
[14] = system: PC-3
[15] = system: RPMI-8226
[16] = system: SK-MEL-5
[17] = system: SNB-19
[18] = system: SNB-75
[19] = system: SW-620
[20] = system: UO-31

SMILES | GI50 [1] | GI50 [2] | GI50 [3] | GI50 [4] [µM] | GI50 [5] | GI50 [6] | GI50 [7] | GI50 [8] | GI50 [9] | GI50 [10] | GI50 [11] | GI50 [12] | GI50 [13] | GI50 [14] | GI50 [15] | GI50 [16] | GI50 [17] | GI50 [18] | GI50 [19] | GI50 [20]
Cc1cc2c(cc1C)N1C(Cl)=C3CCCCC3=C(C#N)C1N2 (configuration not stated) | 1.92 µM (inactive) | 19.1 µM (inactive) | 16.5 µM (inactive) | 2.61 | 3.05 µM (inactive) | 14.3 µM (inactive) | 7.4 µM (inactive) | 7.38 µM (inactive) | 8.75 µM (inactive) | 3.48 µM (inactive) | 16.8 µM (inactive) | 6.31 µM (inactive) | 16.7 µM (inactive) | 13.6 µM (inactive) | 5.25 µM (inactive) | 3.72 µM (inactive) | 20.2 µM (inactive) | 23.6 µM (inactive) | 2.02 µM (inactive) | 6.55 µM (inactive)
CN(C)CCNc1ccc(CO)c2oc3ccc(O)cc3c(=O)c12 | 8.61 µM (inactive) | 12.7 µM (inactive) | 8.97 µM (inactive) | 14.4 | 10.8 µM (inactive) | 10.3 µM (inactive) | 15.7 µM (inactive) | 15.7 µM (inactive) | 17 µM (inactive) | 2.47 µM (inactive) | 13.5 µM (inactive) | 21.3 µM (inactive) | 16.5 µM (inactive) | 12.7 µM (inactive) | 12.3 µM (inactive) | 14.2 µM (inactive) | 17.1 µM (inactive) | 12.6 µM (inactive) | 8.97 µM (inactive) | 10.5 µM (inactive)
O=S(=O)(O)c1ccc2c(/N=N/c3ccc(S(=O)(=O)O)c4ccccc34)c(O)c(S(=O)(=O)O)cc2c1 | > 100 µM (inactive) | > 100 µM (inactive) | > 100 µM (inactive) | > 100 | > 100 µM (inactive) | > 100 µM (inactive) | > 100 µM (inactive) | > 100 µM (inactive) | > 100 µM (inactive) | > 100 µM (inactive) | > 100 µM (inactive) | > 100 µM (inactive) | > 100 µM (inactive) | > 100 µM (inactive) | > 100 µM (inactive) | > 100 µM (inactive) | > 100 µM (inactive) | > 100 µM (inactive) | > 100 µM (inactive) | > 100 µM (inactive)
C=CCc1cccc2cc(C(=O)Nc3nc(C45CC6CC(CC(C6)C4)C5)cs3)c(=O)oc12 | 23.2 µM (inactive) | 25.2 µM (inactive) | 21.4 µM (inactive) | 67 | 34 µM (inactive) | 17.8 µM (inactive) | 16 µM (inactive) |  | 23.4 µM (inactive) | 34.7 µM (inactive) | 46 µM (inactive) | 27.2 µM (inactive) | 24.4 µM (inactive) | 29.6 µM (inactive) | 26.9 µM (inactive) | 40.8 µM (inactive) | 26.1 µM (inactive) | 24.2 µM (inactive) | 31.7 µM (inactive) | 10.8 µM (inactive)
N#Cc1c(N)nc(SCc2ccccc2)c(C#N)c1-c1ccc(O)cc1 | 14 µM (inactive) | 13.1 µM (inactive) | 15.6 µM (inactive) | 11.2 | 11.3 µM (inactive) | 15.2 µM (inactive) | 6.97 µM (inactive) | 14.2 µM (inactive) | 12.3 µM (inactive) | 5.53 µM (inactive) | 15.3 µM (inactive) | 15.7 µM (inactive) | 14.6 µM (inactive) | 15.5 µM (inactive) | 5.24 µM (inactive) | 11.7 µM (inactive) | 17.3 µM (inactive) | 16.8 µM (inactive) | 15.2 µM (inactive) | 1.81 µM (inactive)
O=C(O)/C=C\C(=O)Nc1ccc2c(c1)-c1ccccc1C2 | 91.4 µM (inactive) | 94.6 µM (inactive) | > 100 µM (inactive) | 44.7 | > 100 µM (inactive) | 81.3 µM (inactive) | 44.6 µM (inactive) | > 100 µM (inactive) | > 100 µM (inactive) |  | 63.7 µM (inactive) | 56.1 µM (inactive) | 30.8 µM (inactive) | 69.2 µM (inactive) | 42.5 µM (inactive) | > 100 µM (inactive) | 42.3 µM (inactive) | > 100 µM (inactive) | > 100 µM (inactive) | > 100 µM (inactive)
O=C(O)C[S+]([O-])c1ccc2c3c(cccc13)C(=O)c1ccccc1-2 (configuration not stated) | > 100 µM (inactive) | > 100 µM (inactive) | > 100 µM (inactive) | > 100 | > 100 µM (inactive) | > 100 µM (inactive) | > 100 µM (inactive) | > 100 µM (inactive) | > 100 µM (inactive) |  | > 100 µM (inactive) | > 100 µM (inactive) | > 100 µM (inactive) | > 100 µM (inactive) | > 100 µM (inactive) | > 100 µM (inactive) | > 100 µM (inactive) | > 100 µM (inactive) | > 100 µM (inactive) | > 100 µM (inactive)
